The target of one assay is SHP2 (Homo sapiens (Human), UniProt Q06124). The assay can be described thus: SHP2 Biochemical Assay (DiFMUP conversion, pIRS1-activated). A digest of the protocol: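 Rates of DiFMU formation were followed 30 min at ex 360/em 450 nm, with 50 μM DiFMUP, 10 pM SHP2 and pIRS1 peptide ([…]) after 30 min compound pre-incubation at pH 7.0 Bis-Tris propane. Four-parameter logistic IC50s in singlicate; repeat runs averaged.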

In assay [1] the test system is pERK (phospho-p44/42 ERK) in HCC827 cells. The assay can be described thus: Cellular pERK Inhibition Assay, Method A (In-Cell Western). As to conditions: Homo sapiens. The class given is cell-based. In a few lines:
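In-Cell Western: phospho-p44/42 ERK antibody staining of formalin-fixed HCC827 cells after compound exposure (serum-free medium, 0.2% DMSO, 37 °C, indicated time). Readings minus cell-free blanks were normalised to DMSO-treated wells. Relative IC50 came from four-parameter logistic fits of quadruplicates, given as single or mean values.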

Setting [2] is: Table 19, head prints unit as "-M".
[3] abbreviates: Table 19, head prints unit as "-M", read-out: pERK (IC50) Method A.

The values that follow come from patent US12037345B2, “Heterobicyclic compounds for inhibiting the activity of SHP2” (TAIHO PHARMACEUTICAL CO., LTD., priority 2018, dated 2024).

SMILES strings stand for the structures. Read-outs that look alike come from different tables or passages of the source.

SHP2, sequence (Q06124 whole entry): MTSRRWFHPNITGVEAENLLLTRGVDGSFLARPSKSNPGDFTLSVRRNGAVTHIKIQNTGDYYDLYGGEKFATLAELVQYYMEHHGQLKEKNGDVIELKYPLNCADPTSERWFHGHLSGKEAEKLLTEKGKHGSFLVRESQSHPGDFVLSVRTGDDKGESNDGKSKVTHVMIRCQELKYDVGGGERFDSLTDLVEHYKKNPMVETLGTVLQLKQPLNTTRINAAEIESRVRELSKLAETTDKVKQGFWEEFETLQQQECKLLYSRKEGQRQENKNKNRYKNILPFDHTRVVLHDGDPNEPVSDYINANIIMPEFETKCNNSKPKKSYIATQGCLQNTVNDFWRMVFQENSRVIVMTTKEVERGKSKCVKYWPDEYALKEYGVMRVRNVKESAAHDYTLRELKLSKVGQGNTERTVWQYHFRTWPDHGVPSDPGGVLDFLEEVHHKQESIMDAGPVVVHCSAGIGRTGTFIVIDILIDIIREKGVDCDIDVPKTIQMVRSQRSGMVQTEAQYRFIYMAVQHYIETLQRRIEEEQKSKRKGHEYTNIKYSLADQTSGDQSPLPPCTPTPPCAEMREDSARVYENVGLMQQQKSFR

One may read the IC50 as the midpoint of a concentration-inhibition curve. In the case of `Cn1cc2c(Cl)c(-c3c[nH]c4nc(N5[C@@H]6CCC[C@H]5C[C@@H](N)C6)n(C)c(=O)c34)ccc2n1` [Example 37, 2-(endo-3-amino-9-azabicyclo[3.3.1]nonan-9-yl)-5-(4-chloro-2-methyl-2H-indazol-5-yl)-3-methyl-3,7-dihydro-4H-pyrrolo[2,3-d]pyrimidin-4-one], the 50% inhibitory concentration (IC50) at SHP2 (setting [2]) was 12 nM; in assay [1] (setting [3]), 0.97 µM.
Regarding `Cn1cc2c(Cl)c(-c3c[nH]c4nc(N5C[C@H]6CC[C@@H]5[C@@H]6N)n(C)c(=O)c34)ccc2n1` (stereo in doubt) [Example 157, rel-2-((1R,4R,7R)-7-Amino-2-azabicyclo[2.2.1]heptan-2-yl)-5-(4-chloro-2-methyl-2H-indazol-5-yl)-3-methyl-3,7-dihydro-4H-pyrrolo[2,3-d]pyrimidin-4-one], the half-inhibitory concentration (IC50) stood at 3.7 nM against SHP2 (setting [2]) and 0.022 µM in assay [1] (setting [3]).
For the compound `CCn1cc2c(Cl)c(-c3n[nH]c4nc(N5[C@H]6CC[C@@H]5[C@H](N)C6)n(C)c(=O)c34)ccc2n1` [Example 112, 6-((1R,2R,4S)-2-amino-7-azabicyclo[2.2.1]heptan-7-yl)-3-(4-chloro-2-ethyl-2H-indazol-5-yl)-5-methyl-1,5-dihydro-4H-pyrazolo[3,4-d]pyrimidin-4-one], the IC50 was found to be 13 nM against SHP2 (setting [2]) and 0.26 µM in assay [1] (setting [3]).
As to `Cn1cc2c(Cl)c(-c3c[nH]c4nc(N5C6CNCC5COC6)n(C)c(=O)c34)ccc2n1` [Example 85, 2-(3-oxa-7,9-diazabicyclo[3.3.1]nonan-9-yl)-5-(4-chloro-2-methyl-2H-indazol-5-yl)-3-methyl-3,7-dihydro-4H-pyrrolo[2,3-d]pyrimidin-4-one], the IC50 on SHP2 (setting [2]) was determined as 13 nM; in assay [1] (setting [3]) it was 0.64 µM.
For `COC1(CN)CCN(c2nc3[nH]cc(-c4ccc5nn(C)cc5c4Cl)c3c(=O)n2C)CC1` [Example 64, 2-(4-(aminomethyl)-4-methoxypiperidin-1-yl)-5-(4-chloro-2-methyl-2H-indazol-5-yl)-3-methyl-3,7-dihydro-4H-pyrrolo[2,3-d]pyrimidin-4-one], the 50% inhibitory concentration (IC50) against SHP2 (setting [2]) worked out at 42 nM; in assay [1] (setting [3]), 1.5 µM.
Consider `Cn1cc2c(Cl)c(-c3c[nH]c4nc(N5CCNCC5)n(C)c(=O)c34)ccc2n1` [Example 39, 5-(4-chloro-2-methyl-2H-indazol-5-yl)-3-methyl-2-(piperazin-1-yl)-3,7-dihydro-4H-pyrrolo[2,3-d]pyrimidin-4-one], for which the values for the IC50 (at SHP2 (setting [2]); in assay [1] (setting [3])) were 66 nM and 0.7 µM, respectively.
In the case of `Cn1nc2ccc(-c3c[nH]c4nc(N5CC6COCC(C5)N6)n(C)c(=O)c34)c(Cl)c2c1Cl` [Example 80, 2-(3-oxa-7,9-diazabicyclo[3.3.1]nonan-7-yl)-5-(3,4-dichloro-2-methyl-2H-indazol-5-yl)-3-methyl-3,7-dihydro-4H-pyrrolo[2,3-d]pyrimidin-4-one], the half-maximal inhibitory concentration (IC50) against SHP2 (setting [2]) is 11 nM; in assay [1] (setting [3]) it was 0.27 µM.
Turning to `CCn1cc2c(Cl)c(-c3c[nH]c4nc(N5C6CCCC5CNC6)n(C)c(=O)c34)ccc2n1` [Example 66, 2-(3,9-diazabicyclo[3.3.1]nonan-9-yl)-5-(4-chloro-2-ethyl-2H-indazol-5-yl)-3-methyl-3,7-dihydro-4H-pyrrolo[2,3-d]pyrimidin-4-one], the IC50 against SHP2 (setting [2]) came out at 8.2 nM; in assay [1] (setting [3]), 0.082 µM.
As to `Cn1cc2c(Cl)c(-c3c[nH]c4nc(N5[C@@H]6CC[C@H]5[C@H](F)[C@H](N)C6)n(C)c(=O)c34)ccc2n1` (racemic) [Example 26, rac-2-((1S,2R,3R,5R)-3-amino-2-fluoro-8-azabicyclo[3.2.1]octan-8-yl)-5-(4-chloro-2-methyl-2H-indazol-5-yl)-3-methyl-3,7-dihydro-4H-pyrrolo[2,3-d]pyrimidin-4-one], the IC50 against SHP2 (setting [2]) came out at 11 nM; in assay [1] (setting [3]), 0.088 µM.
The like results for `CN(C)C(=O)Cc1nc2ccc(-c3c[nH]c4nc(N5C6CCCC5CNC6)n(C)c(=O)c34)c(Cl)c2s1` [Example 84, 2-(6-(2-(3,9-diazabicyclo[3.3.1]nonan-9-yl)-3-methyl-4-oxo-4,7-dihydro-3H-pyrrolo[2,3-d]pyrimidin-5-yl)-7-chlorobenzo[d]thiazol-2-yl)-N,N-dimethylacetamide] were, in that order, 18 nM and 0.55 µM.
On to `Cn1cc2c(Cl)c(-c3c[nH]c4nc(N5[C@H]6CC[C@@H]5[C@H](F)[C@H](N)C6)n(C)c(=O)c34)ccc2n1` [Example 131, 2-((1R,2R,3R,5S)-3-amino-2-fluoro-8-azabicyclo[3.2.1]octan-8-yl)-5-(4-chloro-2-methyl-2H-indazol-5-yl)-3-methyl-3,7-dihydro-4H-pyrrolo[2,3-d]pyrimidin-4-one], for which the IC50 was 28 nM against SHP2 (setting [2]) and 0.46 µM in assay [1] (setting [3]).
As for `CN[C@@H]1C[C@@H]2CC[C@H]1N2c1nc2[nH]nc(-c3ccc4ncsc4c3Cl)c2c(=O)n1C` [Example 123, 3-(7-chlorobenzo[d]thiazol-6-yl)-5-methyl-6-((1R,2R,4S)-2-(methylamino)-7-azabicyclo[2.2.1]heptan-7-yl)-1,5-dihydro-4H-pyrazolo[3,4-d]pyrimidin-4-one], the IC50 on SHP2 (setting [2]) turned out to be 18 nM; in assay [1] (setting [3]), 0.17 µM.
As to `Cn1cc2c(Cl)c(-c3c[nH]c4nc(N5C[C@H]6C[C@@H](C5)[C@H]6N)n(C)c(=O)c34)ccc2n1` [Example 34, 2-(endo-6-amino-3-azabicyclo[3.1.1]heptan-3-yl)-5-(4-chloro-2-methyl-2H-indazol-5-yl)-3-methyl-3,7-dihydro-4H-pyrrolo[2,3-d]pyrimidin-4-one], the values for the IC50 (against SHP2 (setting [2]); in assay [1] (setting [3])) were 160 nM and 2.3 µM, respectively.
Consider `COCCn1cc2c(Cl)c(-c3c[nH]c4nc(N5[C@H]6CC[C@@H]5[C@H](N)C6)n(C)c(=O)c34)ccc2n1` [Example 178, 2-((1R,2R,4S)-2-amino-7-azabicyclo[2.2.1]heptan-7-yl)-5-(4-chloro-2-(2-methoxyethyl)-2H-indazol-5-yl)-3-methyl-3,7-dihydro-4H-pyrrolo[2,3-d]pyrimidin-4-one], for which the IC50 was 5 nM on SHP2 (Table 20) and 0.071 µM in assay [1] (Table 20, read-out: pERK (IC50, μM) Method A).
With `Cn1cc2c(Cl)c(-c3c[nH]c4nc(N5CC6C(N)C6C5)n(C)c(=O)c34)ccc2n1` (centres unmarked) [Example 62, 2-(6-amino-3-azabicyclo[3.1.0]hexan-3-yl)-5-(4-chloro-2-methyl-2H-indazol-5-yl)-3-methyl-3,7-dihydro-4H-pyrrolo[2,3-d]pyrimidin-4-one], the IC50 at SHP2 (setting [2]) was found to be 23 nM; in assay [1] (setting [3]), 0.36 µM.
On to `Cn1cc2c(Cl)c(-c3c[nH]c4nc(N5CC6CCC(C5)N6)n(C)c(=O)c34)ccc2n1` [Example 28, 2-(3,8-diazabicyclo[3.2.1]octan-3-yl)-5-(4-chloro-2-methyl-2H-indazol-5-yl)-3-methyl-3,7-dihydro-4H-pyrrolo[2,3-d]pyrimidin-4-one], for which the concentration for half-maximal inhibition (IC50) was determined as 19 nM at SHP2 (setting [2]) and 0.68 µM in assay [1] (setting [3]).
In the case of `Cn1cc2c(Cl)c(-c3c[nH]c4nc(N5C6CNCC5C6)n(C)c(=O)c34)ccc2n1` [Example 29, 2-(3,6-diazabicyclo[3.1.1]heptan-6-yl)-5-(4-chloro-2-methyl-2H-indazol-5-yl)-3-methyl-3,7-dihydro-4H-pyrrolo[2,3-d]pyrimidin-4-one], the IC50 against SHP2 (setting [2]) worked out at 220 nM; in assay [1] (setting [3]), 2.4 µM.
As to `CCn1nc2ccc(-c3n[nH]c4nc(N5[C@H]6CC[C@@H]5[C@H](NC)C6)n(C)c(=O)c34)c(Cl)c2c1Cl` [Example 128, 3-(3,4-dichloro-2-ethyl-2H-indazol-5-yl)-5-methyl-6-((1R,2R,4S)-2-(methylamino)-7-azabicyclo[2.2.1]heptan-7-yl)-1,5-dihydro-4H-pyrazolo[3,4-d]pyrimidin-4-one], the values for the IC50 (at SHP2 (setting [2]); in assay [1] (setting [3])) were 11 nM and 0.16 µM, respectively.
`Cn1c(N2C[C@@H]3CC[C@H]2[C@H]3N)nc2[nH]nc(-c3ccc4ncsc4c3Cl)c2c1=O` (racemic) [Example 134, rac-((1S,4S,7S)-7-amino-2-azabicyclo[2.2.1]heptan-2-yl)-3-(7-chlorobenzo[d]thiazol-6-yl)-5-methyl-1,5-dihydro-4H-pyrazolo[3,4-d]pyrimidin-4-one]: the half-inhibitory concentration (IC50) worked out at 4 nM against SHP2 (setting [2]) and 0.083 µM in assay [1] (setting [3]).
Regarding `CN(C)C(=O)CCn1cc2c(Cl)c(-c3c[nH]c4nc(N5C6CCC5CNC6)n(C)c(=O)c34)ccc2n1` [Example 88, 3-(5-(2-(3,8-diazabicyclo[3.2.1]octan-8-yl)-3-methyl-4-oxo-4,7-dihydro-3H-pyrrolo[2,3-d]pyrimidin-5-yl)-4-chloro-2H-indazol-2-yl)-N,N-dimethylpropanamide], the results for the IC50 (at SHP2 (setting [2]); in assay [1] (setting [3])) were 52 nM and 4.5 µM, respectively.
With `Cn1cc2c(Cl)c(-c3c[nH]c4nc(N5CC[C@](C)(N)C5)n(C)c(=O)c34)ccc2n1` [Example 54, (S)-2-(3-amino-3-methylpyrrolidin-1-yl)-5-(4-chloro-2-methyl-2H-indazol-5-yl)-3-methyl-3,7-dihydro-4H-pyrrolo[2,3-d]pyrimidin-4-one], the half-maximal inhibitory concentration (IC50) on SHP2 (setting [2]) amounted to 110 nM; in assay [1] (setting [3]), 1.8 µM.
Turning to `CCn1cc2c(Cl)c(-c3c[nH]c4nc(N5[C@H]6CC[C@@H]5[C@H](NC)C6)n(C)c(=O)c34)ccc2n1` [Example 98, 5-(4-chloro-2-ethyl-2H-indazol-5-yl)-3-methyl-2-((1R,2R,4S)-2-(methylamino)-7-azabicyclo[2.2.1]heptan-7-yl)-3,7-dihydro-4H-pyrrolo[2,3-d]pyrimidin-4-one], the half-inhibitory concentration (IC50) against SHP2 (setting [2]) is 10 nM; in assay [1] (setting [3]) it was 0.19 µM.
